Values after ≈ are worked out from the molar mass of the structure shown.
Experiments:
[1] = tested on: multidrug-resistant Methicillin-resistant Staphylococcus aureus; assay: MIC by agar dilution (CLSI-M100-S18), Taiwan multidrug-resistant MRSA isolates; type: cell-based; settings: for MIC50 / MIC90: Staphylococcus aureus, MRSA
Experimental: (§1) Compound 1 was tested for its inhibitory effect against multidrug-resistant Methicillin-resistant Staphylococcus aureus and Enterococci obtained by 10 medical centers in all regions of Taiwan. MICs were determined using the agar dilution methods recommended by the Clinical and Laboratory Standards Institute (CLSI-M100-S18).

[2] = Pharmacokinetic assays of plasma of subjects taking Compound 1; settings: for Cmax: day 10, plasma; for Free AUC0-24 / Free Cmax: corrected for plasma protein binding
Experimental: 5 mL of each sample was transferred to a heparin sodium tube and immediately placed on ice. Plasma was separated by centrifugation at approximately 4° C. and transferred to appropriately labeled polypropylene specimen containers (two tubes with 1-1.5 mL plasma/tube) and frozen at approximately −70° C. before use.
Prior to analysis of the blood samples, pharmacokinetic assays were validated.
The pharmacokinetic assays of the blood samples were performed by Charles River Laboratories (Worcester, Mass.).

[3] = tested on: Vancomycin-resistant E. faecium; assay: MIC by agar dilution (CLSI-M100-S18), Taiwan Enterococci isolates; type: cell-based, Enterococcus faecium
Experimental: as §1

[4] = Ciprofloxacin-resistant MRSA (n = 20)
[5] = Ciprofloxacin-susceptible MRSA (n = 20)
[6] = Daptomycin-nonsusceptible MRSA (n = 5)
[7] = Vancomycin-intermediate MRSA (n = 50)
[8] = 500 mg q24 p.o., MIC90 0.125 μg/mL
[9] = 500 mg q24 p.o., MIC90 0.5 μg/mL
[10] = 500 mg q24 p.o., MIC90 0.75 μg/mL
[11] = 750 mg q24 p.o., MIC90 0.125 μg/mL
[12] = 750 mg q24 p.o., MIC90 0.5 μg/mL
[13] = 750 mg q24 p.o., MIC90 0.75 μg/mL
[14] = 1000 mg q24 p.o., MIC90 0.125 μg/mL
[15] = 1000 mg q24 p.o., MIC90 0.5 μg/mL
[16] = 1000 mg q24 p.o., MIC90 0.75 μg/mL
[17] = 1000 mg q24 p.o., MIC90 1 μg/mL
[18] = Enterococcus faecium, Vancomycin-resistant E. faecium (n = 78)

COc1c(N2C[C@@H](C)C[C@H](N)C2)ccc2c(=O)c(C(=O)O)cn(C3CC3)c12 [Compound 1, (3S,5S)-7-[3-amino-5-methyl-piperidinyl]-1-cyclopropyl-1,4-dihydro-8-methoxy-4-oxo-3-quinolinecarboxylic acid]
MIC Range [1, 4]: 0.5 to 1 µg/mL | MIC Range [1, 5]: ≦0.03-0.06 μg/mL | MIC Range [1, 6]: 0.5 to 1 µg/mL | inhibition (in words) ([1]; MRSA isolates that are Ciprofloxacin-resistant, Vancomycin-intermediate-resistant, Daptomycin-nonsusceptible): effective | MIC50 [1, 4]: 0.5 µg/mL (≈ 1.35 µM) | MIC90 [1, 4]: 1 µg/mL (≈ 2.69 µM) | MIC50 [1, 5]: ≤ 0.03 µg/mL | MIC90 [1, 5]: ≤ 0.03 µg/mL | MIC50 [1, 6]: 0.5 µg/mL (≈ 1.35 µM) | MIC90 [1, 6]: 1 µg/mL (≈ 2.69 µM) | MIC50 [1, 7]: 0.5 µg/mL (≈ 1.35 µM) | MIC90 [1, 7]: 2 µg/mL (≈ 5.38 µM) | MIC Range [1, 7]: 0.03 to 8 µg/mL | Cmax ([2]; 500 mg q24 p.o.): 5560 ng/mL | Free AUC0-24/MIC90 ratio at steady state [2, 8]: 259 | Free Cmax/MIC90 ratio at steady state [2, 8]: 37 | Free AUC0-24/MIC90 ratio at steady state [2, 9]: 65 | Free Cmax/MIC90 ratio at steady state [2, 9]: 9 | Free AUC0-24/MIC90 ratio at steady state [2, 10]: 43 | Free Cmax/MIC90 ratio at steady state [2, 10]: 6 | Free AUC0-24/MIC90 ratio at steady state ([2]; 500 mg q24 p.o., MIC90 1 μg/mL): 32 | Free Cmax/MIC90 ratio at steady state ([2]; 500 mg q24 p.o., MIC90 1 μg/mL): 5 | Free AUC0-24/MIC90 ratio at steady state ([2]; 500 mg q24 p.o., MIC90 […]): 130 | Free Cmax/MIC90 ratio at steady state ([2]; 500 mg q24 p.o., MIC90 […]): 19 | Free AUC0-24 ([2]; 500 mg q24 p.o.): 32400 ng·h/mL | Free Cmax ([2]; 500 mg q24 p.o.): 4700 ng/mL | Cmax ([2]; 750 mg q24 p.o.): 6820 ng/mL | Free AUC0-24/MIC90 ratio at steady state [2, 11]: 393 | Free Cmax/MIC90 ratio at steady state [2, 11]: 46 | Free AUC0-24/MIC90 ratio at steady state [2, 12]: 98 | Free Cmax/MIC90 ratio at steady state [2, 12]: 11 | Free AUC0-24/MIC90 ratio at steady state [2, 13]: 65 | Free Cmax/MIC90 ratio at steady state [2, 13]: 8 | Free AUC0-24/MIC90 ratio at steady state ([2]; 750 mg q24 p.o., MIC90 1 μg/mL): 49 | Free Cmax/MIC90 ratio at steady state ([2]; 750 mg q24 p.o., MIC90 1 μg/mL): 6 | Free AUC0-24/MIC90 ratio at steady state ([2]; 750 mg q24 p.o., MIC90 […]): 196 | Free Cmax/MIC90 ratio at steady state ([2]; 750 mg q24 p.o., MIC90 […]): 23 | Free AUC0-24 ([2]; 750 mg q24 p.o.): 49100 ng·h/mL | Free Cmax ([2]; 750 mg q24 p.o.): 5700 ng/mL | Cmax ([2]; 1000 mg q24 p.o.): 8200 ng/mL | Free AUC0-24/MIC90 ratio at steady state [2, 14]: 503 | Free Cmax/MIC90 ratio at steady state [2, 14]: 55 | Free AUC0-24/MIC90 ratio at steady state [2, 15]: 126 | Free Cmax/MIC90 ratio at steady state [2, 15]: 14 | Free AUC0-24/MIC90 ratio at steady state [2, 16]: 84 | Free Cmax/MIC90 ratio at steady state [2, 16]: 9 | Free AUC0-24/MIC90 ratio at steady state [2, 17]: 63 | Free Cmax/MIC90 ratio at steady state [2, 17]: 7 | Free AUC0-24/MIC90 ratio at steady state ([2]; 1000 mg q24 p.o., MIC90 […]): 251 | Free Cmax/MIC90 ratio at steady state ([2]; 1000 mg q24 p.o., MIC90 […]): 28 | Free AUC0-24 ([2]; 1000 mg q24 p.o.): 62900 ng·h/mL | Free Cmax ([2]; 1000 mg q24 p.o.): 6900 ng/mL | MIC50 [3, 18]: 4 µg/mL (≈ 10.8 µM) | MIC90 [3, 18]: 16 µg/mL (≈ 43.1 µM) | MIC Range ([3]; Vancomycin-resistant E. faecium (n = 78)): 0.06 to 16 µg/mL | inhibition (in words) ([3]; Vancomycin-resistant Enterococcus faecium): effective
